# Data as given in article PMC8480901 (PLoS ONE, 2021).
# Several values for one entry are separate records, joined by “and”; a condition that tells them apart may be missing. Equal values may be shown once.
# System: J774.2 mouse macrophages
# Experiment: LPS-induced cytokine and chemokine levels in J774.2 mouse macrophage cell supernatant (ELISA)
# Type: cell-based
# Conditions: for CXCL1 % reduction / CXCL1 [pg/mL] Mean / CXCL2 % reduction / CXCL2 [pg/mL] Mean / MMP9 % reduction / MMP9 [pg/mL] Mean / CXCL2 / MMP9: J774.2 cells; for CXCL1 % reduction / CXCL1 [pg/mL] Mean / CXCL2 % reduction / CXCL2 [pg/mL] Mean / MMP9 % reduction / MMP9 [pg/mL] Mean / CCl2, % reduction / CCl2, Mean / GM-CSF % reduction / GM-CSF Mean / IL-1β % reduction / IL-1β Mean / IL-6 % reduction / IL-6 Mean / TNF-α % reduction / TNF-α Mean / CCl2 / CXCL1 / GM-CSF / IL-1β / IL-6 / TNF-α / CXCL2 / MMP9: LPS; for CCl2, % reduction / CCl2, Mean / GM-CSF % reduction / GM-CSF Mean / IL-1β % reduction / IL-1β Mean / IL-6 % reduction / IL-6 Mean / TNF-α % reduction / TNF-α Mean / CCl2 / CXCL1 / GM-CSF / IL-1β / IL-6 / TNF-α: J774.2 supernatant; for CCl2 / CXCL1 / GM-CSF / IL-1β / IL-6 / TNF-α / CXCL2 / MMP9: individual replicate
structure (smiles),measurement,setting,value
CC[C@H]1OC(=O)[C@H](C)[C@@H](O[C@H]2C[C@@](C)(OC)[C@@H](O)[C@H](C)O2)[C@H](C)[C@@H](O[C@@H]2O[C@H](C)C[C@H](N(C)C)[C@H]2O)[C@](C)(O)C[C@@H](C)CN(C)[C@H](C)[C@@H](O)[C@]1(C)O [Azithromycin],CXCL1 % reduction,compound 0.03 µM,-14%
same,CXCL1 [pg/mL] Mean,compound 0.03 µM,29 pg/mL
same,CXCL2 % reduction,compound 0.03 µM,36%
same,CXCL2 [pg/mL] Mean,compound 0.03 µM,20828 pg/mL
same,MMP9 % reduction,compound 0.03 µM,-31%
same,MMP9 [pg/mL] Mean,compound 0.03 µM,1243 pg/mL
same,CXCL1 % reduction,compound 0.1 µM,-29%
same,CXCL1 [pg/mL] Mean,compound 0.1 µM,33 pg/mL
same,CXCL2 % reduction,compound 0.1 µM,38%
same,CXCL2 [pg/mL] Mean,compound 0.1 µM,20316 pg/mL
same,MMP9 % reduction,compound 0.1 µM,-12%
same,MMP9 [pg/mL] Mean,compound 0.1 µM,1072 pg/mL
same,CXCL1 % reduction,compound 0.3 µM,-11%
same,CXCL1 [pg/mL] Mean,compound 0.3 µM,28 pg/mL
same,CXCL2 % reduction,compound 0.3 µM,29%
same,CXCL2 [pg/mL] Mean,compound 0.3 µM,23099 pg/mL
same,MMP9 % reduction,compound 0.3 µM,-7%
same,MMP9 [pg/mL] Mean,compound 0.3 µM,1027 pg/mL
same,CXCL1 % reduction,compound 1 µM,-18%
same,CXCL1 [pg/mL] Mean,compound 1 µM,30 pg/mL
same,CXCL2 % reduction,compound 1 µM,13%
same,CXCL2 [pg/mL] Mean,compound 1 µM,28283 pg/mL
same,MMP9 % reduction,compound 1 µM,-11%
same,CXCL1 % reduction,compound 3 µM,-30%
same,CXCL1 [pg/mL] Mean,compound 3 µM,33 pg/mL
same,CXCL2 % reduction,compound 3 µM,51%
same,CXCL2 [pg/mL] Mean,compound 3 µM,15868 pg/mL
same,MMP9 % reduction,compound 3 µM,-14%
same,MMP9 [pg/mL] Mean,compound 3 µM,1088 pg/mL
same,CXCL1 % reduction,compound 10 µM,-51%
same,CXCL1 [pg/mL] Mean,compound 10 µM,39 pg/mL
same,CXCL2 % reduction,compound 10 µM,45%
same,CXCL2 [pg/mL] Mean,compound 10 µM,18014 pg/mL
same,MMP9 % reduction,compound 10 µM,11%
same,MMP9 [pg/mL] Mean,compound 10 µM,860 pg/mL
same,CXCL1 % reduction,compound 30 µM,-135%
same,CXCL1 [pg/mL] Mean,compound 30 µM,60 pg/mL
same,CXCL2 % reduction,compound 30 µM,26%
same,CXCL2 [pg/mL] Mean,compound 30 µM,23980 pg/mL
same,MMP9 % reduction,compound 30 µM,47%
same,MMP9 [pg/mL] Mean,compound 30 µM,539 pg/mL
same,CXCL1 % reduction,compound 100 µM,-128%
same,CXCL1 [pg/mL] Mean,compound 100 µM,58 pg/mL
same,CXCL2 % reduction,compound 100 µM,35%
same,CXCL2 [pg/mL] Mean,compound 100 µM,21270 pg/mL
same,MMP9 % reduction,compound 100 µM,70%
same,MMP9 [pg/mL] Mean,compound 100 µM,332 pg/mL
same,"levels of the measured LPS-induced cytokines, chemokines, or MMP-9 in supernatants","J774.2 mouse macrophages, concentrations tested (0.03 to 10 μM shown)",little to no reduction
same,"CCl2, % reduction",0.03 µM,18%
same,"CCl2, Mean",0.03 µM,29824 pg/mL
same,GM-CSF % reduction,0.03 µM,64%
same,GM-CSF Mean,0.03 µM,507 pg/mL
same,IL-1β % reduction,0.03 µM,-40%
same,IL-1β Mean,0.03 µM,266 pg/mL
same,IL-6 % reduction,0.03 µM,9%
same,IL-6 Mean,0.03 µM,70233 pg/mL
same,TNF-α % reduction,0.03 µM,-11%
same,TNF-α Mean,0.03 µM,1517 pg/mL
same,CCl2,0.03 µM,28757.8 pg/mL and 30890.3 pg/mL
same,CXCL1,0.03 µM,31.2 pg/mL and 27.2 pg/mL
same,GM-CSF,0.03 µM,560.6 pg/mL and 452.6 pg/mL
same,IL-1β,0.03 µM,258.52 pg/mL and 274.336 pg/mL
same,IL-6,0.03 µM,75760 pg/mL and 64706 pg/mL
same,TNF-α,0.03 µM,1559.1 pg/mL and 1475.0 pg/mL
same,"CCl2, % reduction",0.1 µM,25%
same,"CCl2, Mean",0.1 µM,27461 pg/mL
same,GM-CSF % reduction,0.1 µM,56%
same,GM-CSF Mean,0.1 µM,616 pg/mL
same,IL-1β % reduction,0.1 µM,-16%
same,IL-1β Mean,0.1 µM,222 pg/mL
same,IL-6 % reduction,0.1 µM,-5%
same,IL-6 Mean,0.1 µM,81359 pg/mL
same,TNF-α % reduction,0.1 µM,-22%
same,TNF-α Mean,0.1 µM,1665 pg/mL
same,CCl2,0.1 µM,26336.9 pg/mL and 28584.6 pg/mL
same,CXCL1,0.1 µM,32.4 pg/mL and 33.7 pg/mL
same,GM-CSF,0.1 µM,657.0 pg/mL and 575.0 pg/mL
same,IL-1β,0.1 µM,219.952 pg/mL and 223.825 pg/mL
same,IL-6,0.1 µM,80523 pg/mL and 82194 pg/mL
same,TNF-α,0.1 µM,1716.4 pg/mL and 1614.2 pg/mL
same,"CCl2, % reduction",0.3 µM,20%
same,"CCl2, Mean",0.3 µM,29163 pg/mL
same,GM-CSF % reduction,0.3 µM,72%
same,GM-CSF Mean,0.3 µM,397 pg/mL
same,IL-1β % reduction,0.3 µM,9%
same,IL-1β Mean,0.3 µM,173 pg/mL
same,IL-6 % reduction,0.3 µM,8%
same,IL-6 Mean,0.3 µM,71113 pg/mL
same,TNF-α % reduction,0.3 µM,-8%
same,TNF-α Mean,0.3 µM,1475 pg/mL
same,CCl2,0.3 µM,28466.3 pg/mL and 29859.2 pg/mL
same,CXCL1,0.3 µM,27.1 pg/mL and 29.7 pg/mL
same,GM-CSF,0.3 µM,346.8 pg/mL and 446.6 pg/mL
same,IL-1β,0.3 µM,173.433 pg/mL and 172.638 pg/mL
same,IL-6,0.3 µM,72113 pg/mL and 70113 pg/mL
same,TNF-α,0.3 µM,1462.3 pg/mL and 1488.2 pg/mL
same,"CCl2, % reduction",1 µM,17%
same,"CCl2, Mean",1 µM,29990 pg/mL
same,GM-CSF % reduction,1 µM,67%
same,GM-CSF Mean,1 µM,467 pg/mL
same,IL-1β % reduction,1 µM,4.32%
same,IL-1β Mean,1 µM,183 pg/mL
same,IL-6 % reduction,1 µM,10%
same,IL-6 Mean,1 µM,69772 pg/mL
same,TNF-α % reduction,1 µM,-11%
same,TNF-α Mean,1 µM,1515 pg/mL
same,CCl2,1 µM,27895.3 pg/mL and 32084.6 pg/mL
same,CXCL1,1 µM,29.3 pg/mL and 31.2 pg/mL
same,GM-CSF,1 µM,431.5 pg/mL and 502.0 pg/mL
same,IL-1β,1 µM,188.28 pg/mL and 176.943 pg/mL
same,IL-6,1 µM,65142 pg/mL and 74401 pg/mL
same,TNF-α,1 µM,1479.7 pg/mL and 1551.1 pg/mL
same,"CCl2, % reduction",3 µM,4%
same,"CCl2, Mean",3 µM,34644 pg/mL
same,GM-CSF % reduction,3 µM,57%
same,GM-CSF Mean,3 µM,606 pg/mL
same,IL-1β % reduction,3 µM,-7%
same,IL-1β Mean,3 µM,204 pg/mL
same,IL-6 % reduction,3 µM,7%
same,IL-6 Mean,3 µM,71996 pg/mL
same,TNF-α % reduction,3 µM,-31%
same,TNF-α Mean,3 µM,1780 pg/mL
same,CCl2,3 µM,38396.7 pg/mL and 30890.3 pg/mL
same,CXCL1,3 µM,37.9 pg/mL and 28.5 pg/mL
same,GM-CSF,3 µM,728.6 pg/mL and 484.1 pg/mL
same,IL-1β,3 µM,204.824 pg/mL and 203.959 pg/mL
same,IL-6,3 µM,78966 pg/mL and 65026 pg/mL
same,TNF-α,3 µM,1995.5 pg/mL and 1564.5 pg/mL
same,"CCl2, % reduction",10 µM,9%
same,"CCl2, Mean",10 µM,32971 pg/mL
same,GM-CSF % reduction,10 µM,52%
same,GM-CSF Mean,10 µM,674 pg/mL
same,IL-1β % reduction,10 µM,1.15%
same,IL-1β Mean,10 µM,189 pg/mL
same,IL-6 % reduction,10 µM,15%
same,IL-6 Mean,10 µM,65894 pg/mL
same,TNF-α % reduction,10 µM,-25%
same,TNF-α Mean,10 µM,1709 pg/mL
same,CCl2,10 µM,34921.6 pg/mL and 31021.1 pg/mL
same,CXCL1,10 µM,42.9 pg/mL and 34.6 pg/mL
same,GM-CSF,10 µM,752.0 pg/mL and 595.8 pg/mL
same,IL-1β,10 µM,185.693 pg/mL and 191.532 pg/mL
same,IL-6,10 µM,62169 pg/mL and 69619 pg/mL
same,TNF-α,10 µM,1793.0 pg/mL and 1624.6 pg/mL
same,"CCl2, % reduction",30 µM,-14%
same,"CCl2, Mean",30 µM,40819 pg/mL
same,GM-CSF % reduction,30 µM,66%
same,GM-CSF Mean,30 µM,483 pg/mL
same,IL-1β % reduction,30 µM,28%
same,IL-1β Mean,30 µM,138 pg/mL
same,IL-6 % reduction,30 µM,43%
same,IL-6 Mean,30 µM,44169 pg/mL
same,TNF-α % reduction,30 µM,-15%
same,TNF-α Mean,30 µM,1566 pg/mL
same,CCl2,30 µM,40980.3 pg/mL and 40657.2 pg/mL
same,CXCL1,30 µM,68.6 pg/mL and 51.5 pg/mL
same,GM-CSF,30 µM,510.8 pg/mL and 455.1 pg/mL
same,IL-1β,30 µM,129.379 pg/mL and 146.376 pg/mL
same,IL-6,30 µM,40788 pg/mL and 47550 pg/mL
same,TNF-α,30 µM,1637.1 pg/mL and 1494.0 pg/mL
same,"CCl2, % reduction",100 µM,12%
same,"CCl2, Mean",100 µM,31879 pg/mL
same,GM-CSF % reduction,100 µM,76%
same,GM-CSF Mean,100 µM,343 pg/mL
same,IL-1β % reduction,100 µM,36%
same,IL-1β Mean,100 µM,122 pg/mL
same,IL-6 % reduction,100 µM,69%
same,IL-6 Mean,100 µM,24231 pg/mL
same,TNF-α % reduction,100 µM,-21%
same,TNF-α Mean,100 µM,1656 pg/mL
same,CCl2,100 µM,33824.3 pg/mL and 29933.1 pg/mL
same,CXCL1,100 µM,66.2 pg/mL and 50.6 pg/mL
same,GM-CSF,100 µM,399.7 pg/mL and 287.0 pg/mL
same,IL-1β,100 µM,120.112 pg/mL and 124.217 pg/mL
same,IL-6,100 µM,25573 pg/mL and 22888 pg/mL
same,TNF-α,100 µM,1818.4 pg/mL and 1493.5 pg/mL
same,CXCL2,compound 0.03 µM,14544.8 pg/mL and 27111.4 pg/mL
same,MMP9,compound 0.03 µM,1137.13 pg/mL and 1348.53 pg/mL
same,CXCL2,compound 0.1 µM,14262.2 pg/mL and 26368.8 pg/mL
same,MMP9,compound 0.1 µM,973.296 pg/mL and 1170.61 pg/mL
same,CXCL2,compound 0.3 µM,19194.7 pg/mL and 27003.7 pg/mL
same,MMP9,compound 0.3 µM,981.336 pg/mL and 1072.64 pg/mL
same,CXCL2,compound 1 µM,28271.6 pg/mL and 28293.6 pg/mL
same,MMP9,compound 1 µM,1115.62 pg/mL and 1010.37 pg/mL
same,CXCL2,compound 3 µM,17053.3 pg/mL and 14683.3 pg/mL
same,MMP9,compound 3 µM,1120.5 pg/mL
same,CXCL2,compound 10 µM,20008.2 pg/mL and 16019.2 pg/mL
same,MMP9,compound 10 µM,846.885 pg/mL and 873.775 pg/mL
same,CXCL2,compound 30 µM,23084.4 pg/mL and 24875.0 pg/mL
same,MMP9,compound 30 µM,575.954 pg/mL and 501.629 pg/mL
same,CXCL2,compound 100 µM,19137.4 pg/mL and 23402.0 pg/mL
same,MMP9,compound 100 µM,340.616 pg/mL and 323.365 pg/mL
